# In PMC10766610, “DCAF1-based PROTACs with activity against clinically validated targets overcoming intrinsic- and acquired-degrader resistance” (Nature Communications, 2024):
# Columns and labels:
# [1] = molecular target: T1, DCAF1(WDR) with additional 10 µM BRD9-BD(130-250) (Homo sapiens, UniProt Q9H8M2+Q9Y4B6, E1398S); assay: DCAF1 TR-FRET, cooperative format with 10 µM BRD9-BD(130-250); assay type: binding; details: read-out: TR-FRET Q. IC50 [μM], + BRD9
# T1 construct: 2 nM human DCAF1(1073-1399)_E1398S-Avi-His; human BRD9-BD(130-250) in the cooperative assay; His6 (C); GST (PreScission site) (N, cleaved yes); made in house; host or cells: DCAF1: Sf9 with BirA; BRD9: E. coli Rosetta (pGEX6P1)
# T1 sequence (Q9Y4B6 1073-1399 E1398S, one chain of several): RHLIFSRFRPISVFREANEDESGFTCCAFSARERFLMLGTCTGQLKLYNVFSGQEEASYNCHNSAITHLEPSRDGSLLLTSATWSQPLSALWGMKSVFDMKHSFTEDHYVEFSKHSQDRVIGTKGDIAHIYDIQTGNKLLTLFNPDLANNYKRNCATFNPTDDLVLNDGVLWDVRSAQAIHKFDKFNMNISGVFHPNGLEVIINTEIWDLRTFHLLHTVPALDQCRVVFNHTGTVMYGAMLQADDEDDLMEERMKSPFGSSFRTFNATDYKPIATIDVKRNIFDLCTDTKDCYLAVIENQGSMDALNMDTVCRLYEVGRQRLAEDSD
# Experimental: Competition assay conditions consist of 20 µL total volume in white 384-well plates (Greiner), in 30 mM phosphate buffer pH 7.4 containing 140 mM NaCl, 0.01% Tween20, 1 mM TCEP and 1% final DMSO. Tested compounds at 14 different concentrations were pre-incubated at 22 °C for 30 min with a large excess of 10 µM human BTK (G389-S659) or 10 µM human BRD9-BD(130-250) in the cooperative assay or with buffer in standard binary assay. […] Samples were then incubated at 22 °C for 30 min before reading using a Tecan infinite M-1000 or PheraStar FSX (excitation 340 nm, emission 490 and 520 nm). DCAF1 protein was omitted in the negative control. IC50 fitting was carried out using an in-house developed software (Novartis Helios software application, unpublished, a publicly available alternative would be e.g., Graphpad Prism) using the methods described by Fomenko et al.[93] (regression algorithms for nonlinear dose-response curve fitting). Following normalization of activity values for the wells to % inhibition (% inhibition = [(high control-sample)/(high control-low control)] × 100). Data analysis could also be carried out using GraphPad Prism without prior normalization. The reported IC50 values are the average of at least two independent experiments.
# BRD9 = molecular target: T2, BRD9 (Homo sapiens, UniProt Q9H8M2); assay: Capillary western of BRD9 in 768-O cells; assay type: cell-based; details: 768-O cells (lacking VHL), 2 h
# T2 sequence (Q9H8M2 1-597): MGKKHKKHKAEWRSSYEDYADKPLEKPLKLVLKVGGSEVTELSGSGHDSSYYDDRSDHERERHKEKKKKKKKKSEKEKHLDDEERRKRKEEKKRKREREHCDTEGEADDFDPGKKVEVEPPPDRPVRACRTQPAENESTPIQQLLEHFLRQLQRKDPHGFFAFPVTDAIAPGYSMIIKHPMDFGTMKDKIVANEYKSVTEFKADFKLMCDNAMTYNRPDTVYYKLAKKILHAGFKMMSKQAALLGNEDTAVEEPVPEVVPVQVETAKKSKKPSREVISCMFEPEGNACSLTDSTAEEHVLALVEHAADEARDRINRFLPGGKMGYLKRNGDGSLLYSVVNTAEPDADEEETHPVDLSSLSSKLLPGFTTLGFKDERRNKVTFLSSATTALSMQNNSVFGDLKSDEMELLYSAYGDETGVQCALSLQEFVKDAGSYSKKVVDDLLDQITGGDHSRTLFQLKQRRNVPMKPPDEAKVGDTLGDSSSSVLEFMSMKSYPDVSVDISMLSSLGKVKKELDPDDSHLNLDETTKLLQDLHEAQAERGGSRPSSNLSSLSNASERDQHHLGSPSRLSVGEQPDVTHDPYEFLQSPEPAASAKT
# Experimental: Protein peaks were analyzed using Compass for Simple Western version 5.0.1 (ProteinSimple), area under the curve for both α-tubulin ([…]) and BRD9 (90 kDa) per capillary was extracted and BRD9 area was normalized to α-tubulin area on a per-capillary basis before each sample was normalized to the DMSO for each run of three triplicates.
structure (smiles),measurement,setting,value
COc1cc(-c2cn(C)c(=O)c3cnccc23)c(OC)cc1CN1CCC(OCCCCCC(=O)N2CCN(c3ccc4c(NCCN)nc(C5(c6ccc(Cl)cc6)CCCCC5)nc4c3)CC2)CC1 [DBr-1],IC50,[1],0.002 µM
same,DC50,BRD9,1.04 µM
